The nature of assay [1]: Substrate activity at CPR in human L02 cells assessed as CPR-mediated one-electron reduction of compound by measuring cell growth inhibition treated for 24 hrs measured after 72 hrs by MTT assay. In general terms: Tetrazolium dyes change colour on reduction, which living cells bring about.
Assay [2] can be described thus: Substrate activity at NQO1 in human A549 cells assessed as NQO1-mediated two-electron reduction of compound by measuring cell growth inhibition treated for 24 hrs measured after 72 hrs by MTT assay.
The nature of assay [3]: Substrate activity at NQO1 in human HCT116 cells assessed as NQO1-mediated two-electron reduction of compound by measuring cell growth inhibition treated for 24 hrs measured after 72 hrs by MTT assay.
The nature of assay [4]: Substrate activity at NQO1 in human MCF7 cells assessed as NQO1-mediated two-electron reduction of compound by measuring cell growth inhibition treated for 24 hrs measured after 72 hrs by MTT assay.
Assay [5] in a line: Substrate activity at NQO1 in human HepG2 cells assessed as NQO1-mediated two-electron reduction of compound by measuring cell growth inhibition treated for 24 hrs measured after 72 hrs by MTT assay.
Assay [6] can be described thus: Substrate activity at NQO1 in human H522 cells assessed as NQO1-mediated two-electron reduction of compound by measuring cell growth inhibition treated for 24 hrs measured after 72 hrs by MTT assay.
Assay [7] is described as follows: Substrate activity at NQO1 in human H1299 cells assessed as NQO1-mediated two-electron reduction of compound by measuring cell growth inhibition treated for 24 hrs measured after 72 hrs by MTT assay.
Assay [8] can be described thus: Substrate activity at NQO1 in human H1650 cells assessed as NQO1-mediated two-electron reduction of compound by measuring cell growth inhibition treated for 24 hrs measured after 72 hrs by MTT assay.

Molecules are shown by their SMILES.

For orientation: IC50 means the concentration at which inhibition is half-maximal. As for `COc1ccc2c(c1)C(=O)C(=O)C1=C2OC(C)C1(C)C` (centres undefined), the concentration for half-maximal inhibition (IC50) in assay [1] turned out to be 30 µM.

As to `Cc1ccc2c(c1)-c1occ(C)c1C(=O)C2=O`, the IC50 in assay [1] was 6.3 µM; in assay [2] it was 4.1 µM.

Regarding `Cc1coc2c1C(=O)C(=O)c1c(C)ccc(C)c1-2`, the IC50 in assay [1] stood at 17 µM; in assay [2], 2.9 µM.

Take `Cc1cc2c(cc1C)-c1occ(C)c1C(=O)C2=O`: the IC50 was 4.4 µM in assay [3]; 2.4 µM in assay [4]; 3.3 µM in assay [2]; 2.5 µM in assay [5]; 4.8 µM in assay [6]; 4.9 µM in assay [7]. The IC50 in assay [8] was determined as 9.3 µM.

Consider `COc1cccc2c1C1=C(C(=O)C2=O)C(C)(C)C(C)O1` (centres undefined), for which, in assay [1], the 50% inhibitory concentration (IC50) was determined as 19 µM.

Consider `COc1ccc2c(c1)C1=C(C(=O)C2=O)C(C)(C)C(C)O1` (centres undefined), for which the IC50 in assay [2] worked out at 5.8 µM.

Turning to `Cc1cc2c(cc1C)-c1occc1C(=O)C2=O`, the IC50 in assay [2] was 3.1 µM.

On to `CCc1coc2c1C(=O)C(=O)c1cc(C)ccc1-2`, for which the concentration for half-maximal inhibition (IC50) was found to be 25 µM in assay [1] and 3.1 µM in assay [2].

Consider `Cc1ccc2c(c1)C(=O)C(=O)c1c(C)coc1-2`, for which the results for the IC50 in assay [1] and in assay [2] were 22 µM and 8.5 µM, respectively.

These data come from BindingDB's records for doi:10.1016/j.ejmech.2017.02.004 (China Pharmaceutical University, 2017).
